Results taken from ChEMBL document CHEMBL4507269, “Data for DCP probe BAY-386” (2021).

How the values were obtained:
[1] = biological target: Dual specificity mitogen-activated protein kinase kinase 1 (Homo sapiens) (UniProt Q02750); conditions: Compound concentration 1000.0 nM
[2] = biological target: Phosphatidylinositol 3-kinase C2 domain-containing subunit gamma (Homo sapiens) (UniProt O75747); conditions: Compound concentration 1000.0 nM
[3] = biological target: MAP kinase-interacting serine/threonine-protein kinase 1 (Homo sapiens) (UniProt Q9BUB5); conditions: Compound concentration 1000.0 nM
[4] = biological target: Somatostatin receptor type 4 (Homo sapiens) (UniProt P31391); assay: sst4 (h) Eurofins-Cerep Cellular and Nuclear Receptor Functional Assays; conditions: Compound concentration 10.0 uM
Chain of Somatostatin receptor type 4 (Homo sapiens) (P31391 whole entry): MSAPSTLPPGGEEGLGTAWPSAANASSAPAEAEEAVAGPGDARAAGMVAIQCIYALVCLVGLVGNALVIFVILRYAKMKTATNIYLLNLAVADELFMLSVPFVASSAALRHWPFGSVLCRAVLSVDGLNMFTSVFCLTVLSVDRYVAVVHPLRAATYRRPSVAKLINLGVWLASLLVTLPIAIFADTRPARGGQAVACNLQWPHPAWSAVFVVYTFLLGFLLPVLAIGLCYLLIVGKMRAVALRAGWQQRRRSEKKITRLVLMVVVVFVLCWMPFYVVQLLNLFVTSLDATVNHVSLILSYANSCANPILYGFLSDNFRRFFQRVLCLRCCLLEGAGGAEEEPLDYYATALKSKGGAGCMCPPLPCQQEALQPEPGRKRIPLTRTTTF

[5] = biological target: T1, 5-hydroxytryptamine receptor 1A (Homo sapiens) (UniProt P08908); conditions: Compound concentration 10.0 uM
T1 sequence (whole entry): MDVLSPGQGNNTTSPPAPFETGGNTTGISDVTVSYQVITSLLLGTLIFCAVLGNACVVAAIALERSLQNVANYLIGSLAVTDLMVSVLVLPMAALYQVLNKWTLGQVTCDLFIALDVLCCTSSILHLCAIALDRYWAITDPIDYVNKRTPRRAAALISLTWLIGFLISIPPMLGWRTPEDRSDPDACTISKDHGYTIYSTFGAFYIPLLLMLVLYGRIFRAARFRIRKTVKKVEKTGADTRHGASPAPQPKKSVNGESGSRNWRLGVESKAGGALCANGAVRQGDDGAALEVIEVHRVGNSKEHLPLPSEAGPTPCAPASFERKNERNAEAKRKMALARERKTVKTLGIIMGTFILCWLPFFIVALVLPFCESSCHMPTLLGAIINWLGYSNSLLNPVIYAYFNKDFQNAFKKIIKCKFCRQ

[6] = system: Epidermal growth factor receptor (Homo sapiens), P00533 [UNDEFINED MUTATION]; conditions: Compound concentration 1000.0 nM
[7] = biological target: Insulin-like growth factor 1 receptor (Homo sapiens) (UniProt P08069); conditions: Compound concentration 1000.0 nM
[8] = biological target: Serine/threonine-protein kinase 16 (Homo sapiens) (UniProt O75716); conditions: Compound concentration 1000.0 nM
Chain of Serine/threonine-protein kinase 16 (Homo sapiens) (O75716 whole entry): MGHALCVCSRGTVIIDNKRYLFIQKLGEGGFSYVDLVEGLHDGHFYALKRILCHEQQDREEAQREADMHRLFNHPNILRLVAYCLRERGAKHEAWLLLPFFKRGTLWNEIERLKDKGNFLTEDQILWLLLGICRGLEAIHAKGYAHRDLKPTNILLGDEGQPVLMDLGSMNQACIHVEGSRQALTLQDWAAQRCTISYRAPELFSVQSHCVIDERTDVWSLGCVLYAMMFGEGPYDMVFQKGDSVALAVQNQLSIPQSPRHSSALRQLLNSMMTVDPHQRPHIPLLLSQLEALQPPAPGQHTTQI

[9] = biological target: Mitogen-activated protein kinase 12 (Homo sapiens) (UniProt P53778); conditions: Compound concentration 1000.0 nM
[10] = biological target: Death-associated protein kinase 1 (Homo sapiens) (UniProt P53355); conditions: Compound concentration 1000.0 nM
[11] = biological target: Dual specificity mitogen-activated protein kinase kinase 5 (Homo sapiens) (UniProt Q13163); conditions: Compound concentration 1000.0 nM
[12] = biological target: Hormonally up-regulated neu tumor-associated kinase (Homo sapiens) (UniProt P57058); conditions: Compound concentration 1000.0 nM
[13] = biological target: Serine/threonine-protein kinase WNK4 (Homo sapiens) (UniProt Q96J92); conditions: Compound concentration 1000.0 nM
[14] = biological target: Interleukin-1 receptor-associated kinase 3 (Homo sapiens) (UniProt Q9Y616); conditions: Compound concentration 1000.0 nM
[15] = biological target: Dual specificity protein kinase CLK1 (Homo sapiens) (UniProt P49759); conditions: Compound concentration 1000.0 nM
Chain of Dual specificity protein kinase CLK1 (Homo sapiens) (P49759 whole entry, looked up): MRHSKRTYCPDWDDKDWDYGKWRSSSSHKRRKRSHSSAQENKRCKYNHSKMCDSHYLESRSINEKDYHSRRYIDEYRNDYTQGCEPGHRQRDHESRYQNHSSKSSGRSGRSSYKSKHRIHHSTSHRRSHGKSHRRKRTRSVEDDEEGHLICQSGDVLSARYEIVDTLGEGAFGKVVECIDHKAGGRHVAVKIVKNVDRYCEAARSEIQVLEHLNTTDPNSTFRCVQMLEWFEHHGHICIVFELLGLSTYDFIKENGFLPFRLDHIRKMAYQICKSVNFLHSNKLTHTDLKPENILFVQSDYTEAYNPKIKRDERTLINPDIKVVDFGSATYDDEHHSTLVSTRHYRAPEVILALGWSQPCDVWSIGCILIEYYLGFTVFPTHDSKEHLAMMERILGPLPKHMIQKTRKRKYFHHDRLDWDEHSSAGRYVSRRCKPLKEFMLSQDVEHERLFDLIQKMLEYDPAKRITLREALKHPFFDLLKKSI

[16] = system: Receptor-type tyrosine-protein kinase FLT3 (Homo sapiens), P36888 [R834Q]; conditions: Compound concentration 1000.0 nM
[17] = biological target: Protein-tyrosine kinase 6 (Homo sapiens) (UniProt Q13882); conditions: Compound concentration 1000.0 nM
Chain of Protein-tyrosine kinase 6 (Homo sapiens) (Q13882 whole entry, looked up): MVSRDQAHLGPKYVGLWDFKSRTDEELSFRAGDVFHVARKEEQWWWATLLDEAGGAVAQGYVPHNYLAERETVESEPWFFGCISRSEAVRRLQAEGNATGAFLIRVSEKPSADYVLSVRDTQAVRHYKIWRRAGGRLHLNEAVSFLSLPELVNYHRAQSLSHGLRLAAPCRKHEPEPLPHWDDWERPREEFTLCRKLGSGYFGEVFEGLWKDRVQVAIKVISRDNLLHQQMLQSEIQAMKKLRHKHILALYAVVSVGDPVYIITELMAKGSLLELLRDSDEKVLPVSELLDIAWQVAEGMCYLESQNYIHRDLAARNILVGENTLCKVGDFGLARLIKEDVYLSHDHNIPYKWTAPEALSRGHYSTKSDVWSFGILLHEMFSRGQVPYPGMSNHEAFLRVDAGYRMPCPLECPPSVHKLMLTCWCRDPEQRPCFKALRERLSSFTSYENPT

[18] = biological target: MAP kinase-activated protein kinase 5 (Homo sapiens) (UniProt Q8IW41); conditions: Compound concentration 1000.0 nM
[19] = biological target: Mitogen-activated protein kinase kinase kinase kinase 1 (Homo sapiens) (UniProt Q92918); conditions: Compound concentration 1000.0 nM
[20] = biological target: cGMP-dependent protein kinase 2 (Homo sapiens) (UniProt Q13237); conditions: Compound concentration 1000.0 nM
Chain of cGMP-dependent protein kinase 2 (Homo sapiens) (Q13237 whole entry): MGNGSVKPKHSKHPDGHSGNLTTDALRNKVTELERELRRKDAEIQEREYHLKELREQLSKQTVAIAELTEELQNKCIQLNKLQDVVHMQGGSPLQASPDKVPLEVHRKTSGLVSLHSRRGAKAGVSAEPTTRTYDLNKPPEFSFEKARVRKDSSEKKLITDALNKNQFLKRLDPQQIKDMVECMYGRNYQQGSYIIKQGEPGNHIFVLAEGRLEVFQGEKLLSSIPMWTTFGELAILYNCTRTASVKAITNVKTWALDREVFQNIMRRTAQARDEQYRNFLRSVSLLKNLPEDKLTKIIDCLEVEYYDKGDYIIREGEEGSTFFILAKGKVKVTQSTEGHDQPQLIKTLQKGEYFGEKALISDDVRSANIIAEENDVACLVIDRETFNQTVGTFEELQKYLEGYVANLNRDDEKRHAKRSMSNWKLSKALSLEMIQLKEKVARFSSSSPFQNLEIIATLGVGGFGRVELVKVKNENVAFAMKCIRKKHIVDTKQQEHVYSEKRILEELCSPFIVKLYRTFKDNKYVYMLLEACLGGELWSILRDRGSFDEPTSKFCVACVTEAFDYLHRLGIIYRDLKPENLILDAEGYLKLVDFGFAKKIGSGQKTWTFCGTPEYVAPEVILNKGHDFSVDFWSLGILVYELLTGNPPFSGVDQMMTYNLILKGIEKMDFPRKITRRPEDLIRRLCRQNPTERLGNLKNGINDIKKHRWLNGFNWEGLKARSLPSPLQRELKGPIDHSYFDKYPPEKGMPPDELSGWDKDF

[21] = biological target: Serine/threonine-protein kinase SIK2 (Homo sapiens) (UniProt Q9H0K1); conditions: Compound concentration 1000.0 nM
[22] = biological target: Serine/threonine-protein kinase 4 (Homo sapiens) (UniProt Q13043); conditions: Compound concentration 1000.0 nM
[23] = biological target: Discoidin domain-containing receptor 2 (Homo sapiens) (UniProt Q16832); conditions: Compound concentration 1000.0 nM
[24] = biological target: Tyrosine-protein kinase ITK/TSK (Homo sapiens) (UniProt Q08881); conditions: Compound concentration 1000.0 nM
[25] = biological target: D(2) dopamine receptor (Homo sapiens) (UniProt P14416); assay: D2s (h) Eurofins-Cerep Cellular and Nuclear Receptor Functional Assays; conditions: Compound concentration 10.0 uM
Chain of D(2) dopamine receptor (Homo sapiens) (P14416 whole entry): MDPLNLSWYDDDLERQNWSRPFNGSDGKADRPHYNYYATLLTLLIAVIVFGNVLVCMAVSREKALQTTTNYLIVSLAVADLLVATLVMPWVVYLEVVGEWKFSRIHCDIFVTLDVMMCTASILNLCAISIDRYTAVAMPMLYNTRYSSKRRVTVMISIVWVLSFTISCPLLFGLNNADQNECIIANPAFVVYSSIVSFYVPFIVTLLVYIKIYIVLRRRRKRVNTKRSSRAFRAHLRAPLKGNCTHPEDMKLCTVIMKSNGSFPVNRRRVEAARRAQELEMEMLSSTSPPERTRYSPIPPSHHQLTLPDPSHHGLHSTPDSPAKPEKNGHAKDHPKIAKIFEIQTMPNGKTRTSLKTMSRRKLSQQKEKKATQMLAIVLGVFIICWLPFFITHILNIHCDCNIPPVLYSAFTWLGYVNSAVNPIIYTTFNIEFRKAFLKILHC

[26] = biological target: Dual specificity protein kinase TTK (Homo sapiens) (UniProt P33981); conditions: Compound concentration 1000.0 nM
[27] = biological target: Mitogen-activated protein kinase kinase kinase kinase 3 (Homo sapiens) (UniProt Q8IVH8); conditions: Compound concentration 1000.0 nM
[28] = biological target: Phosphorylase b kinase gamma catalytic chain, skeletal muscle/heart isoform (Homo sapiens) (UniProt Q16816); conditions: Compound concentration 1000.0 nM
[29] = biological target: Tyrosine-protein kinase Tec (Homo sapiens) (UniProt P42680); conditions: Compound concentration 1000.0 nM
Chain of Tyrosine-protein kinase Tec (Homo sapiens) (P42680 whole entry): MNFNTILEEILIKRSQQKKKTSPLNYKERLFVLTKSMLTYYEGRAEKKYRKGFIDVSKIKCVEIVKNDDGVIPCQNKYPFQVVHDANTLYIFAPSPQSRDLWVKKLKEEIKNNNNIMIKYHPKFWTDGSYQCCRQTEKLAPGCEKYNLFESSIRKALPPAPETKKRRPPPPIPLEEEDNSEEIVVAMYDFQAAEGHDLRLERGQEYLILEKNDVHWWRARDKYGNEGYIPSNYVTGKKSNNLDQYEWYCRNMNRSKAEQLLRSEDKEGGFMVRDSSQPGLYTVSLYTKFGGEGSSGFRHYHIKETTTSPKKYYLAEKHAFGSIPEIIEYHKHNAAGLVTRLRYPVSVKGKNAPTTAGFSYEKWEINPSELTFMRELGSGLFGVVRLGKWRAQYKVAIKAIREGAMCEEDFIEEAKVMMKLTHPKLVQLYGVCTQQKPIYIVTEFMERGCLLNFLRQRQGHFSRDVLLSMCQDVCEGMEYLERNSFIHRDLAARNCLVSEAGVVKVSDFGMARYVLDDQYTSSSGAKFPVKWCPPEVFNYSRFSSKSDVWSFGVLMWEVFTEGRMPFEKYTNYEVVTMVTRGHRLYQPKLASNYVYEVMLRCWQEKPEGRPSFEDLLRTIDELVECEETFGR

[30] = biological target: Serine/threonine-protein kinase ULK1 (Homo sapiens) (UniProt O75385); conditions: Compound concentration 1000.0 nM
Chain of Serine/threonine-protein kinase ULK1 (Homo sapiens) (O75385 whole entry): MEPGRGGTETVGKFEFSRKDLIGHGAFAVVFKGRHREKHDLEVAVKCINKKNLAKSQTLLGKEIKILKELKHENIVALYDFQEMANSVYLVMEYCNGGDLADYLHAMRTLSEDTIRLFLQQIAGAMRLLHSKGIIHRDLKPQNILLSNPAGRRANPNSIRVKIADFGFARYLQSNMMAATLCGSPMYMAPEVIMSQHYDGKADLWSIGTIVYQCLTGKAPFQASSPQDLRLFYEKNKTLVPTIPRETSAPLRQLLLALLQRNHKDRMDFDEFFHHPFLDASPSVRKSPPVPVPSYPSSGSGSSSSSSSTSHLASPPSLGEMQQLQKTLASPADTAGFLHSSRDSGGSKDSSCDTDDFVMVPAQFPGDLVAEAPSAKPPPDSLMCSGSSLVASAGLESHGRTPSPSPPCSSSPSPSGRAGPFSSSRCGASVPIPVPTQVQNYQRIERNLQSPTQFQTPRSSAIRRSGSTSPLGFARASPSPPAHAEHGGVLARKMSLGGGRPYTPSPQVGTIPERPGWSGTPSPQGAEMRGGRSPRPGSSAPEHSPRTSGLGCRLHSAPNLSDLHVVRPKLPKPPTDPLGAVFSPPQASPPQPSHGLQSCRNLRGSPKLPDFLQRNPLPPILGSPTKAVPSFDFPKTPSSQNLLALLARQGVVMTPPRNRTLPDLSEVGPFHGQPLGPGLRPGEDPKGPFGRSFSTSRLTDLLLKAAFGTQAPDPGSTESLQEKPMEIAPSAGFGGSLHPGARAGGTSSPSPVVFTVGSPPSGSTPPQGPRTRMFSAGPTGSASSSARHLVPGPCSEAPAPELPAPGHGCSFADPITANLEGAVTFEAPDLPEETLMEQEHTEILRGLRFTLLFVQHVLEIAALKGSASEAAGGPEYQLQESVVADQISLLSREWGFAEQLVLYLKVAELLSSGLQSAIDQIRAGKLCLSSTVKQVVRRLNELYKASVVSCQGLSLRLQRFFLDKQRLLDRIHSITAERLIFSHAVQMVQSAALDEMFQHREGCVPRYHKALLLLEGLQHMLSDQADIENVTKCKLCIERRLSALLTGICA

[31] = biological target: Tyrosine-protein kinase Lck (Homo sapiens) (UniProt P06239); conditions: Compound concentration 1000.0 nM
[32] = biological target: Casein kinase I isoform alpha (Homo sapiens) (UniProt P48729); conditions: Compound concentration 1000.0 nM
Chain of Casein kinase I isoform alpha (Homo sapiens) (P48729 2-337 limits assumed): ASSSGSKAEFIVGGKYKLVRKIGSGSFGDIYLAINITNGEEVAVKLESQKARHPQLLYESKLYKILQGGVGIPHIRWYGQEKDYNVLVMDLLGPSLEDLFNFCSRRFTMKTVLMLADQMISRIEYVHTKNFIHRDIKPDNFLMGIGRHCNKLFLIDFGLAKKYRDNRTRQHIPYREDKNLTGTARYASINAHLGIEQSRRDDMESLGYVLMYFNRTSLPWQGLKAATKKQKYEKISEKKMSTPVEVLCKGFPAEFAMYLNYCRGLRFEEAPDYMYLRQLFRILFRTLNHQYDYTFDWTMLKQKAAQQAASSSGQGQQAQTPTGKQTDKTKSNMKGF

[33] = biological target: Serine/threonine-protein kinase WNK1 (Homo sapiens) (UniProt Q9H4A3); conditions: Compound concentration 1000.0 nM
[34] = biological target: Mitogen-activated protein kinase 9 (Homo sapiens) (UniProt P45984); conditions: Compound concentration 1000.0 nM
[35] = biological target: Serine/threonine-protein kinase/endoribonuclease IRE1 (Homo sapiens) (UniProt O75460); conditions: Compound concentration 1000.0 nM
[36] = biological target: Mitogen-activated protein kinase kinase kinase 1 (Homo sapiens) (UniProt Q13233); conditions: Compound concentration 1000.0 nM
[37] = biological target: Kappa-type opioid receptor (Homo sapiens) (UniProt P41145); conditions: Compound concentration 10.0 uM
[38] = biological target: Serine/threonine-protein kinase 32C (Homo sapiens) (UniProt Q86UX6); conditions: Compound concentration 1000.0 nM
[39] = biological target: 5-hydroxytryptamine receptor 2A (Homo sapiens) (UniProt P28223); conditions: Compound concentration 10.0 uM

Cc1noc([C@H]2C[C@@H](c3ccc(C(F)(F)F)cc3)CN(C(=O)N3CCS(=O)(=O)C3)C2)n1 [BAY-448]
3.1%: % of Control Agonist Response (Mean n=2) [25]
8.6%: % Inhibition of Control Agonist Response (Mean n=2) [25]
inactive: residual activity [1] 100% | residual activity [2] 90% | residual activity [3] 99% | inhibition [5] -4.52% | residual activity [6] 67% | residual activity [7] 100% | residual activity [8] 100% | residual activity [9] 100% | residual activity [10] 100% | residual activity [11] 78% | residual activity [12] 100% | residual activity [13] 100% | residual activity [14] 100% | residual activity [15] 100% | residual activity [16] 91% | residual activity [17] 100% | residual activity [18] 100% | residual activity [19] 100% | residual activity [20] 100% | residual activity [21] 100% | residual activity [22] 100% | residual activity [23] 74% | residual activity [24] 100% | residual activity [26] 100% | residual activity [27] 100% | residual activity [28] 100% | residual activity [29] 100% | residual activity [30] 85% | residual activity [31] 100% | residual activity [32] 70% | residual activity [33] 86% | residual activity [34] 99% | residual activity [35] 100% | residual activity [36] 100% | inhibition [37] 7.69% | residual activity [38] 100% | inhibition [39] -2.96%
1.2%: % Inhibition of Control Agonist Response (Mean n=2) [4]
-2%: % of Control Agonist Response (Mean n=2) [4]

O=C(N1CCS(=O)(=O)CC1)N1C[C@H](c2ccc(OC(F)(F)F)cc2)C[C@H](c2nc(C3CC3)no2)C1 [BAY-386]
-3.3%: % Inhibition of Control Agonist Response (Mean n=2) [4]
-13%: % of Control Agonist Response (Mean n=2) [4]
6.6%: % Inhibition of Control Agonist Response (Mean n=2) [25]
inactive: residual activity [1] 91% | residual activity [2] 93% | residual activity [3] 100% | inhibition [5] 14.7% | residual activity [6] 92% | residual activity [7] 100% | residual activity [8] 100% | residual activity [9] 100% | residual activity [10] 92% | residual activity [11] 100% | residual activity [12] 100% | residual activity [13] 100% | residual activity [14] 100% | residual activity [15] 98% | residual activity [16] 100% | residual activity [17] 100% | residual activity [18] 94% | residual activity [19] 100% | residual activity [20] 100% | residual activity [21] 100% | residual activity [22] 100% | residual activity [23] 100% | residual activity [24] 100% | residual activity [26] 82% | residual activity [27] 100% | residual activity [28] 94% | residual activity [29] 100% | residual activity [30] 100% | residual activity [31] 100% | residual activity [32] 100% | residual activity [33] 100% | residual activity [34] 84% | residual activity [35] 96% | residual activity [36] 100% | inhibition [37] 1.29% | residual activity [38] 93% | inhibition [39] 10.5%
4%: % of Control Agonist Response (Mean n=2) [25]
